Among the data in BindingDB's records for PubMed 9223589 (University of Tours, 1997) are Ki values, retold here.

“And” between values parts separate entries of the source, which are not always exact repeats. Equal entries are not always repeated.

Assay [1] deals with Norepinephrine transporter (Rattus norvegicus, UniProt Q9JIA2).
Assay [2] concerns the target Sodium-dependent dopamine transporter (Rattus norvegicus, UniProt P23977).
In assay [3] the target is Sodium-dependent serotonin transporter (Rattus norvegicus, UniProt P31652).
Chain of Sodium-dependent serotonin transporter (P31652 whole entry): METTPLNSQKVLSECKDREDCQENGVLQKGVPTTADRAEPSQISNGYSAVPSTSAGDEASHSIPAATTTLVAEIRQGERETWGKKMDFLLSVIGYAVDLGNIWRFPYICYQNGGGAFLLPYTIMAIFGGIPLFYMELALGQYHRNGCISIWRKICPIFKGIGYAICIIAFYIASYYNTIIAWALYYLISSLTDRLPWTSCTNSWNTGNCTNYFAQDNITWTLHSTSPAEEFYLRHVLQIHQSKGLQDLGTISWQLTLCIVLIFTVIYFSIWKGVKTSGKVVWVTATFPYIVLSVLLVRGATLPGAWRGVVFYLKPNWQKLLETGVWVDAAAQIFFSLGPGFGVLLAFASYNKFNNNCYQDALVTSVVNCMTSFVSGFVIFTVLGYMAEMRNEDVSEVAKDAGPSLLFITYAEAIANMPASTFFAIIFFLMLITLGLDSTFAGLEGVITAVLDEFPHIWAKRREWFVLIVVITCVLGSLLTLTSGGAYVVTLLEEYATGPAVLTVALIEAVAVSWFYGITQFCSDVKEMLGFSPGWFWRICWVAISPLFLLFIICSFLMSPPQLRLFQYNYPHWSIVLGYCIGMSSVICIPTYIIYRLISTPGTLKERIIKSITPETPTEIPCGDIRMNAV

Chain of Sodium-dependent dopamine transporter (P23977 whole entry): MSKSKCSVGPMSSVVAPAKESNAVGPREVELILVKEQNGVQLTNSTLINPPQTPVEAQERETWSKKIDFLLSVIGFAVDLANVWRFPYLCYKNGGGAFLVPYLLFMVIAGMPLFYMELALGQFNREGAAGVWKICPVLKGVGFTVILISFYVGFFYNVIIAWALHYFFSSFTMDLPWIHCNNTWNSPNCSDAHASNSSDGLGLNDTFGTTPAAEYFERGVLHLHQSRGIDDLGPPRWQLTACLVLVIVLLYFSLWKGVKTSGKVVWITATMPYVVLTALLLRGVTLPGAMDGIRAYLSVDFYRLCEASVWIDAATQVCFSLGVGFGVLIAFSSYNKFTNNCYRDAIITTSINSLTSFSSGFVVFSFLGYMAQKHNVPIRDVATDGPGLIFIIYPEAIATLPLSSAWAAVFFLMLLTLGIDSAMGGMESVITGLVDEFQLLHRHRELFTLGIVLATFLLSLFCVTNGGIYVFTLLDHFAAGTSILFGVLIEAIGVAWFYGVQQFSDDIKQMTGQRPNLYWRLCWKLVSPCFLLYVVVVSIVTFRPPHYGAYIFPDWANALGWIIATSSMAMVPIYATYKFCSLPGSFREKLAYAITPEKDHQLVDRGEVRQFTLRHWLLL

With `COC(=O)[C@H]1C(c2ccc(Cl)c(Cl)c2)CC2CCC1N2C/C=C/I` (stereo partly drawn) [(2S,8R)-3-(3,4-Dichloro-phenyl)-8-((E)-3-iodo-allyl)-8-aza-bicyclo[3.2.1]octane-2-carboxylic acid methyl ester], the inhibition constant Ki (commonly the equilibrium dissociation constant of an inhibitor or competing ligand from its target) in assay [1] was determined as 500 nM. On to `O[C@]1(c2ccc(Cl)cc2)c2ccccc2C2=NCCN21` [Mazanor], for which, in assay [2], the Ki was 50 nM and 12 nM. Consider `COC(=O)[C@H]1[C@@H](c2ccc(I)cc2)C[C@@H]2CC[C@H]1N2C` [RTI 55, (exo,exo)-isomer, Iodine (125) labeled], for which the Ki is 3.1 nM in assay [3], 27.5 nM in assay [2] and 80 nM in assay [1].
